Each structure is given as a SMILES string.

What all share (format): biochemical
In one assay the target is Pim-2 (Homo sapiens (Human), UniProt Q9P1W9). In words: Pim-2 kinase assay. As to conditions: 1 mM ATP; read-out: PIM2 IC50. The protocol:
Pim-2 kinase assay—20 μL reactions were run in white 384 well polystyrene plates dotted with 0.8 μL compound/DMSO in the assay buffer (50 mM Tris, pH 7.5, 0.01% Tween-20, 5 mM mgCl2, 0.01% BSA, 5 mM DTT), containing 0.05 μM Fluorescein-labeled CREBtide peptide substrate (Invitrogen PV3508), 1 mM ATP, and 1 nM enzyme (Invitrogen PV3649) for 2 h at 25° C. Reactions were stopped by addition of 10 μL TR-FRET Dilution Buffer (Invitrogen PV3574) with 30 mM EDTA and 1.5 nM LanthaScreen Tb-CREB pSer133 antibody (Invitrogen PV3566). After 30 min. incubation at room temperature, plates were read on a PHERAstar FS plate reader (BMG Labtech).

A further assay addresses Pim-3 (Homo sapiens (Human), UniProt Q86V86). The experiment in a line: Pim-3 kinase assay. Conditions: 1 mM ATP; read-out: PIM3 IC50. How it is done:
(§1) Pim-1 and Pim-3 kinase assays—20 μL reactions were run in white 384 well polystyrene plates dotted with 0.8 μL compound/DMSO in the assay buffer (50 mM Tris, pH 7.5, 0.01% Tween-20, 5 mM mgCl2, 0.01% BSA, 5 mM DTT), containing 0.05 μM Biotin-labeled BAD peptide substrate (AnaSpec 62269), 1 mM ATP, and 2.5 pM (Pim-1, Invitrogen PV3503) or 1.25 pM (Pim-3, Millipore 14-738) enzyme for 1 h at 25° C. Reactions were stopped by addition of 10 μL STOP Buffer (150 mM Tris, pH=7.5, 150 mM NaCl, 75 mM EDTA, 0.01% Tween-20, 0.3% BSA,) supplemented with Phospho-Bad (Ser112) Antibody (Cell Signaling 9291) diluted 666-fold, and Streptavidin donor beads (PerkinElmer 6760002) along with Protein-A acceptor beads (PerkinElmer 6760137) at […]. Supplementation of the STOP buffer with beads and stopping the reactions were done under reduced light. Prior to the stopping reactions STOP buffer with beads was preincubated for 1 h in the dark at room temperature. After stopping the reactions, plates were incubated for 1 h in the dark at room temperature before reading on a PHERAstar FS plate reader (BMG Labtech) under reduced light.

The target of the next assay is Pim-1 (Homo sapiens (Human), UniProt P11309). The experiment in a line: Pim-1 kinase assay. As to conditions: 1 mM ATP; read-out: PIM1 IC50. How it is done:
as §1

Sequence of Pim-2 (Q9P1W9 whole entry): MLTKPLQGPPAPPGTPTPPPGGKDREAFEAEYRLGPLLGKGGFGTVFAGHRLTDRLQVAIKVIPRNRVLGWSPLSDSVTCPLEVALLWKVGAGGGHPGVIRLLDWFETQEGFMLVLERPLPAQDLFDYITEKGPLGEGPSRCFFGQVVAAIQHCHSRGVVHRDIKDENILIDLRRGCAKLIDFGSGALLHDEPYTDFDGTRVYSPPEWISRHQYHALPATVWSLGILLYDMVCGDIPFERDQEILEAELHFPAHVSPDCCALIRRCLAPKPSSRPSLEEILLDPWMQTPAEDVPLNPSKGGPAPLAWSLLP
Sequence of Pim-1 (P11309 whole entry): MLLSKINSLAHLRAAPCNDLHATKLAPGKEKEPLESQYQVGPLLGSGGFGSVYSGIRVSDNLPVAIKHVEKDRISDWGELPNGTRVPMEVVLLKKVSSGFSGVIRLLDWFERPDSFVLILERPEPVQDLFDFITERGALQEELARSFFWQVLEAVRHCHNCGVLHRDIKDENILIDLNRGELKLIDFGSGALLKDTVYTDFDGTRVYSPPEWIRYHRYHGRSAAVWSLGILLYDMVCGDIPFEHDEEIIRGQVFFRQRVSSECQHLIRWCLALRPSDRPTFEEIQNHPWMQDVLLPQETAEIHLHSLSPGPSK

Broadly, the IC50 is the concentration needed to halve the response being measured. `C[C@@H]1C[C@H](N)C[C@H](c2ccncc2NC(=O)c2ccc(F)c3cc(C4CC4)cnc23)C1` [Example 13, N-{4-[(1R,3S,5S)-3-Amino-5-methylcyclohexyl]pyridin-3-yl}-3-cyclopropyl-5-fluoroquinoline-8-carboxamide]: the IC50 at Pim-2 was at most 100 nM; at Pim-3, at most 10 nM; on Pim-1, at most 10 nM.
For the compound `C[C@@H]1C[C@H](N)C[C@H](c2ccncc2NC(=O)c2ccc(F)c3cc(N4CCC(C)(O)CC4)cnc23)C1` [Example 41, N-(4-((1R,3S,5S)-3-Amino-5-methylcyclohexyl)pyridin-3-yl)-5-fluoro-3-(4-hydroxy-4-methylpiperidin-1-yl)quinoline-8-carboxamide], the 50% inhibitory concentration (IC50) at Pim-2 lay in the range of 100 to 1000 nM; on Pim-3, 10 to 50 nM; on Pim-1 it was 10 to 50 nM.
On to `C[C@@H]1C[C@H](N)C[C@H](c2ccncc2NC(=O)c2ccc(F)c3cc(N(C)c4ncccc4F)cnc23)C1` [Example 142, N-(4-((1R,3S,5S)-3-Amino-5-methylcyclohexyl)pyridin-3-yl)-5-fluoro-3-((3-fluoropyridin-2-yl)(methyl)amino)quinoline-8-carboxamide], for which the half-inhibitory concentration (IC50) was at most 100 nM on Pim-2, at most 10 nM on Pim-3 and at most 10 nM on Pim-1.
For the compound `C[C@@H]1C[C@H](N)C[C@H](c2ccncc2NC(=O)c2ccc(F)c3cc(N4CCOC(CO)C4)cnc23)C1` (stereo partly drawn) [Example 132, N-(4-((1R,3S,5S)-3-Amino-5-methylcyclohexyl)pyridin-3-yl)-5-fluoro-3-(2-(hydroxymethyl)morpholino)quinoline-8-carboxamide], the IC50 on Pim-2 was 100 to 1000 nM; on Pim-3, at most 10 nM; on Pim-1 it was at most 10 nM.
Turning to `C[C@@H]1C[C@H](N)C[C@H](c2ccncc2NC(=O)c2ccc(F)c3cc(N4CCO[C@@H](C)C4)cnc23)C1` [Example 38, N-(4-((1R,3S,5S)-3-Amino-5-methylcyclohexyl)pyridin-3-yl)-5-fluoro-3-((S)-2-methylmorpholino)quinoline-8-carboxamide], the IC50 was 100 to 1000 nM on Pim-2, 10 to 50 nM at Pim-3 and at most 10 nM on Pim-1.
`C[C@@H]1C[C@H](N)C[C@H](c2ccncc2NC(=O)c2ccc(F)c3cc(-c4c(F)cccc4C#N)cnc23)C1` [Example 15, N-{4-[(1R,3S,5S)-3-Amino-5-methylcyclohexyl]pyridin-3-yl}-3-(2-cyano-6-fluorophenyl)-5-fluoroquinoline-8-carboxamide]: the IC50 on Pim-2 is at most 100 nM; at Pim-3 it was at most 10 nM; on Pim-1, at most 10 nM.
As for `C[C@@H]1C[C@H](N)C[C@H](c2ccncc2NC(=O)c2ccc(F)c3cc(N4CCC(C#N)CC4)cnc23)C1` [Example 45, N-(4-((1R,3S,5S)-3-Amino-5-methylcyclohexyl)pyridin-3-yl)-3-(4-cyanopiperidin-1-yl)-5-fluoroquinoline-8-carboxamide], the 50% inhibitory concentration (IC50) on Pim-2 is 100 to 1000 nM; at Pim-3 it was 10 to 50 nM; on Pim-1 it was at most 10 nM.
In the case of `C[C@@H]1C[C@H](N)C[C@H](c2ccncc2NC(=O)c2ccc(F)c3cc(N4CC[C@H](F)C4)cnc23)C1` [Example 5, N-{4-[(1R,3S,5S)-3-Amino-5-methylcyclohexyl]pyridin-3-yl}-5-fluoro-3-[(3S)-3-fluoropyrrolidin-1-yl]quinoline-8-carboxamide], the IC50 is at most 100 nM on Pim-2, at most 10 nM on Pim-3 and at most 10 nM on Pim-1.
On to `C[C@@H]1C[C@H](N)C[C@H](c2ccncc2NC(=O)c2ccc(F)c3cc(-c4c(F)cccc4F)nnc23)C1` [Example 91, N-{4-[(1R,3S,5S)-3-amino-5-methylcyclohexyl]pyridin-3-yl}-3-(2,6-difluorophenyl)-5-fluorocinnoline-8-carboxamide], for which the IC50 was 1000 to 10000 nM at Pim-2, 10 to 50 nM on Pim-3 and at most 10 nM on Pim-1.
The matching figures for `CCN(C)c1cnc2c(C(=O)Nc3cnccc3[C@@H]3C[C@H](C)C[C@H](N)C3)ccc(F)c2c1` [Example 20, N-(4-((1R,3S,5S)-3-Amino-5-methylcyclohexyl)pyridin-3-yl)-3-(ethyl(methyl)amino)-5-fluoroquinoline-8-carboxamide]: at most 100 nM, at most 10 nM and at most 10 nM.
The matching figures for `C[C@@H]1C[C@H](N)C[C@H](c2ccncc2NC(=O)c2cccc3cc(N(C)CC(F)F)cnc23)C1` [Example 72, N-(4-((1R,3S,5S)-3-Amino-5-methylcyclohexyl)pyridin-3-yl)-3-((2,2-difluoroethyl)(methyl)amino)quinoline-8-carboxamide]: 100 to 1000 nM, at most 10 nM and at most 10 nM.
The matching figures for `CO[C@@H]1CCN(c2cnc3c(C(=O)Nc4cnccc4[C@@H]4C[C@H](C)C[C@H](N)C4)ccc(F)c3c2)[C@H](C)C1` [Example 161, N-(4-((1R,3S,5S)-3-Amino-5-methylcyclohexyl)pyridin-3-yl)-5-fluoro-3-((2R,4R)-4-methoxy-2-methylpiperidin-1-yl)quinoline-8-carboxamide]: at most 100 nM, at most 10 nM and at most 10 nM.
For `C[C@@H]1C[C@H](N)C[C@H](c2ccncc2NC(=O)c2ccc(F)c3cc(N4C[C@H]5C[C@@H]4CO5)cnc23)C1` [Example 80, N-(4-((1R,3S,5S)-3-Amino-5-methylcyclohexyl)pyridin-3-yl)-3-((1R,4R)-2-oxa-5-azabicyclo[2.2.1]heptan-5-yl)-5-fluoroquinoline-8-carboxamide], the results for the IC50 on Pim-2, at Pim-3 and at Pim-1 were at most 100 nM, at most 10 nM and at most 10 nM, respectively.
Take `C[C@@H]1C[C@H](N)C[C@H](c2ccncc2NC(=O)c2ccc(F)c3cc(N(C)C4CCOC4)cnc23)C1` (stereo partly drawn) [Example 23, N-{4-[(1R,3S,5S)-3-Amino-5-methylcyclohexyl]pyridin-3-yl}-5-fluoro-3-[methyl(tetrahydrofuran-3-yl)amino]quinoline-8-carboxamide]: the IC50 was 100 to 1000 nM at Pim-2, at most 10 nM on Pim-3 and at most 10 nM at Pim-1.
`C[C@@H]1C[C@H](N)C[C@H](c2ccncc2NC(=O)c2ccc(F)c3cc(N4CCC[C@@H]4C)cnc23)C1` [Example 39, N-(4-((1R,3S,5S)-3-Amino-5-methylcyclohexyl)pyridin-3-yl)-5-fluoro-3-((S)-2-methylpyrrolidin-1-yl)quinoline-8-carboxamide]: the values for the half-inhibitory concentration (IC50) on Pim-2, at Pim-3 and on Pim-1 were at most 100 nM, 10 to 50 nM and at most 10 nM, respectively.
In the same order, the values of `CCc1cnc2c(C(=O)Nc3cnccc3[C@@H]3C[C@H](C)C[C@H](N)C3)ccc(F)c2c1` [Example 1, N-{4-[(1R,3S,5S)-3-Amino-5-methylcyclohexyl]pyridin-3-yl}-3-ethyl-5-fluoroquinoline-8-carboxamide] are 100 to 1000 nM, at most 10 nM and at most 10 nM.
In the same order, the values of `C[C@@H]1C[C@H](N)C[C@H](c2ccncc2NC(=O)c2ccc(F)c3cc(-c4cc(F)cc5cccnc45)cnc23)C1` [Example 59, N-(4-((1R,3S,5S)-3-Amino-5-methylcyclohexyl)pyridin-3-yl)-5,6′-difluoro-3,8′-biquinoline-8-carboxamide] are 1000 to 10000 nM, 10 to 50 nM and at most 10 nM.
The matching figures for `CO[C@H]1CCCN(c2cnc3c(C(=O)Nc4cnccc4[C@@H]4C[C@H](C)C[C@H](N)C4)ccc(F)c3c2)C1` [Example 11, N-{4-[(1R,3S,5S)-3-Amino-5-methylcyclohexyl]pyridin-3-yl}-5-fluoro-3-[(38)-3-methoxypiperidin-1-yl]quinoline-8-carboxamide]: 100 to 1000 nM, at most 10 nM and at most 10 nM.
On to `C[C@@H]1C[C@H](N)C[C@H](c2ccncc2NC(=O)c2ccc(F)c3cc(N4CCN(S(C)(=O)=O)C[C@@H]4C)cnc23)C1` [Example 85, N-(4-((1R,3S,5S)-3-Amino-5-methylcyclohexyl)pyridin-3-yl)-5-fluoro-3-((S)-2-methyl-4-(methylsulfonyl)piperazin-1-yl)quinoline-8-carboxamide], for which the IC50 on Pim-2 is 100 to 1000 nM; at Pim-3 it was at most 10 nM; on Pim-1, at most 10 nM.
Regarding `C[C@@H]1C[C@H](N)C[C@H](c2ccncc2NC(=O)c2ccc(F)c3cc(N4CC5(CCOCC5)C4)cnc23)C1` [Example 121, N-(4-((1R,3S,5S)-3-Amino-5-methylcyclohexyl)pyridin-3-yl)-5-fluoro-3-(7-oxa-2-azaspiro[3.5]nonan-2-yl)quinoline-8-carboxamide], the IC50 on Pim-2 was at most 100 nM; on Pim-3, at most 10 nM; at Pim-1, at most 10 nM.

The record behind these values is patent US9920032B2, “Heterocyclic compounds useful as pim kinase inhibitors” (Incyte Corporation, priority 2015, dated 2018).
